Experimental findings from patent US20230097253A1, “NOVEL QUINAZOLINE COMPOUND AS THERAPEUTIC AGENT FOR METABOLIC DISORDERS” (BIOWAY., INC, priority 2020, published 2023) are described below.

The test system of experiment [1] is 3T3-L1 cells. The experiment can be described thus: Inhibition of fat globule formation in adipocytes by Oil-Red-O staining. It counts as cell-based, mouse. The conditions noted are these: 3T3-L1 adipocytes, 0.5, 2.5, 10 and 20 μM. The protocol:
In order to confirm the effect of the compound on reducing fat accumulation on adipocytes, 3TL-L1 mouse fat progenitor cells (American Type Culture Collection) were cultured in an incubator set at 37° C. with 95% humidity and 5% CO2.
Additionally, after sufficiently proliferating 3T3-L1 mouse adipocytes using a proliferation medium (Dulbecco's modified Eagle's medium (DMEM) supplemented with 10% bovine serum (BS), 100 U/mL of penicillin, and 100 μg/mL of streptomycin), the cells were treated with a differentiation medium (DMEM containing 10% FBS, 0.5 mM 3-isobutyl-1-methylxanthine, 1 […], and 5 μg/mL insulin) for 2 days.
Thereafter, the cells were treated with an induction medium (DMEM containing 10% FBS and 5 μg/mL insulin) for 2 days, the maintenance medium (DMEM containing 10% FBS) was replaced daily to maintain the differentiated adipocytes until the end of the experiment.
According to an embodiment of the present invention, in order to confirm the ability of the compound of Formula 2 to inhibit fat globule formation, the 3T3-L1 cells (which are fat progenitor cells) were induced to be differentiated into adipocytes, and then stained through Oil-Red-O staining. […]

The test system of experiment [2] is steatosis-induced Huh7 cells. The experiment can be described thus: Fat globule reducing effect in steatosis-induced hepatocytes by Oil-Red-O staining. In kind it is cell-based. The conditions noted are these: 250 μM PA, 0.5, 2.5 and 10 μM, concentration dependent, FIG. 7. How it is done: According to an embodiment of the present invention, in order to confirm the effect of inhibiting the accumulation of triglycerides in steatosis-induced liver cells, the Huh7 cells were cultured in an incubator set at 37° C. with 95% humidity and 5% CO2.
Additionally, Huh7 cells were proliferated to a confluency of 80-90% on a plate using a growth medium (Dulbecco's modified Eagle's medium (DMEM) supplemented with 10% fetal bovine serum (FBS), 100 U/ml of penicillin, and 100 μg/ml of streptomycin), and then used for the experiment.
According to an embodiment of the present invention, in order to confirm the ability of BW-3290 to inhibit fat globule accumulation in steatosis-induced liver cells, the liver cells were treated with palmitic acid (PA) bound to 2% BSA at a concentration of 250 μM except for the control group to induce steatosis, and then fat globules were stained through Oil-Red-O staining.
First, liver cells were cultured to grow 80-90% confluency in a 12 well plate, and the test material were diluted in the culture medium that induced steatosis and the liver cells, except for the control group, were treated with 0.5 μM, 2.5 μM, and 10 μM of the test material.
Additionally, after removing the cell supernatant from the wells for Oil-Red-O staining, the washing process was performed twice with PBS. […]

Experiment [3] deals with DIAMOND™ mouse model. The experiment can be described thus: In-vivo activity, histopathological diagnosis (H&E and Oil-Red-O staining of liver tissue). Particulars: DIAMOND mice, 16 mg/kg oral once daily for 8 weeks, FIG. 18. How it is done: The DIAMOND™ mouse model, an animal model prepared using a Western diet and sugar water, was used. The DIAMOND™ mice were induced with WDSW for 14 weeks, and 12 mice were used for the control group and 12 mice for the BW-3290 treatment group, and BW-3290 was orally administered at 16 mg/kg once daily for 8 weeks. An autopsy was performed at week 22, and blood collection and tissue storage were performed for the individuals in each group.
Hematoxylin & Eosin (H&E) staining and Oil-Red-O (ORO) staining were performed using liver tissue obtained after autopsy

SMILES strings stand for the structures.

As for `CC(C)C(Nc1ncnc2nc[nH]c12)c1nc2cccc(Cl)c2c(=O)n1-c1ccccc1` (centres unmarked) [BW-3290, 2-(1-((7H-purin-6-yl)amino)-2-methylpropyl)-5-chloro-3-phenylquinazolin-4(3H)-one], the “fat globule staining (Oil-Red-O) compared to differentiation” value in experiment [1] (concentration-dependent, FIG. 5) is “lower level of fat globule staining compared to differentiation”. The “amount of stained fat globules” value in experiment [1] (FIG. 6) was “appeared less in a drug concentration-dependent manner”. For the same molecule, the “fat globule staining (Oil-Red-O) compared to PA” value in experiment [2] was “lower level of fat globule staining compared to PA”. For the same molecule, the “fat cells stained in red in liver tissue, ORO staining” value in experiment [3] (compared to the control group (VC)) is reported as “reduced”. In addition, the “fat globules in liver tissue, H&E staining” value in experiment [3] (compared to the control group) is “reduced”.
